# Columns and labels:
# [1] = Moisture sorption isotherm (hygroscopicity); assay type: physicochemical; settings: FIG. 10
# [2] = Solution mediated transformation of aripiprazole forms (thermodynamic stability); assay type: physicochemical; settings: at temperatures at and below about 60° C.
compound,measurement,setting,value
"O=C1CCc2ccc(OCCCCN3CCN(c4cccc(Cl)c4Cl)CC3)cc2N1 [Form X of aripiprazole, 7-[4-[4-(2,3-dichlorophenyl)-1-piperazinyl]butoxy]-3,4-dihydro-2(1H)-quinolinone]",conversion into a hydrated form of aripiprazole,[1],does not substantially convert into a hydrated form of aripiprazole
same,hygroscopicity,[1],low hygroscopicity
same,thermodynamic stability (Gibbs free energy relative to other forms of aripiprazole),[2],lowest Gibbs free energy

# From patent publication US8008490B2, “Polymorphic forms of aripiprazole and method” (Sandoz AG, priority 2005, dated 2011)
